Assay results from patent publication US20240174744A1, “METHODS OF TREATMENT USING PROTEIN BINDERS TO IRHOM2 EPITOPES” (SCIRHOM GMBH, priority 2021, published 2024).

Tested on: LPS-induced release of TNFα from human macrophages from healthy donors
Experiment: ELISA-based TNFα release assay, human macrophages from healthy donors
Type: cell-based
Settings: Macrophage, recombinant murine antibodies, final concentration of 10 µg/ml, Batimastat 10 μM, LPS 5 ng/ml, 2 hours
Experimental: Complementary to Example 32 described above, ELISA-based TNFα release assays were performed to test the inhibitory effects of the antibodies on LPS-induced release of endogenous TNFα from human macrophages from healthy donors.
To obtain human macrophages, peripheral blood mononuclear cells (PBMCs) from 4 healthy donors were used. Cells from 5 ml human blood were resuspended in 20 ml of DMEM medium (Corning, USA) supplemented with 10% FCS (Atlanta Biological, USA) and Penicillin/Streptomycin (Corning, USA) (DMEM/FCS) and were then incubated on two 10 cm petri dishes (Thermo Fisher, USA) at 37° C., 5% CO2 for 3h. Non-adherent cells were subsequently removed and 6 ml of DMEM/FCS supplemented with 10 ng/ml human MCSF (Peprotech, USA) (DMEM/FCS/MCSF) was added per plate. Both plates were incubated at 37° C., 5% CO2 for 2 days, then 2 ml of DMEM/FCS/MCSF was added to each plate on day 2 and 4. On day 5, all medium was removed and attached cells were washed once with 5 ml PBS (Corning, USA). 2 ml of Accutase (Promocell, USA) solution was added to each plate and incubated at 37° C. for 15 min. 10 ml of DMEM/FCS was added to each plate and detached cells were collected in a 15 ml Falcon tube. Cells were subsequently pelleted in a tabletop centrifuge (Eppendorf, USA) at 1,500 rpm for 5 min. […] 10 μl from this cell suspension was manually counted in a hemocytometer (Thermo Fisher, USA). […]

## CNC(=O)[C@H](Cc1ccccc1)NC(=O)[C@H](CC(C)C)[C@H](CSc1cccs1)C(=O)NO [Batimastat]
  inhibition at 10 µM: 68.3%
